Results: patent publication US20200237909A1, “METHODS OF TREATING OR PREVENTING BREAST CANCER METASTASES USING ANTIBODIES TO JAGGED1 AND CHEMOTHERAPEUTIC AGENTS” (The Trustees of Princeton University, priority 2017, published 2020)

Experiments:
Assay type in all cases: in vivo, mice
SCP28 cells = assay: Parental SCP28 bone metastasis, late treatment with 15D11 and paclitaxel; conditions: low endogenous Jagged1
Text: FIG. 4. Synergistic inhibition of bone metastasis by SCP28 with combined treatment of 15D11 and chemotherapy. (A) Schematic illustration of the experimental procedure. (B) Quantification of bone metastasis burden based on BLI imaging. n=10. *p<0.05 and **p<0.01 by Mann-Whitney test. (C) Representative BLI images and X-ray images at week 6. (D) Representative H&E and TRAP staining images from the experiment. (E) Quantification of osteolytic lesions based on X-ray images. n=10. **p<0.01 by Student's t-test. (F) Quantification of TRAP+ osteoclasts from decalcified histological bone sections of hind limbs from mice, n=10. **p<0.01 by Student's t-test. Size bar: 100 μm for H&E and 50 μm for TRAP.
The strong inhibitory effect of the combined treatment on bone metastasis could potentially be explained by the combined effect of blocking Jagged1-dependent stromal engagement by 15D11 and cytotoxicity of paclitaxel to tumor cells. […]
Mice were purchased from Jackson laboratory. […] Spontaneous bone metastasis was monitored by X-ray imaging. […] Bone metastasis burden was monitored by weekly BLI and X-ray imaging. At the experimental endpoint, mice were euthanized for bone histology analysis and half of the bone samples were used for μCT imaging and bone density quantification.

SCP28-Jagged1 cells = assay: SCP28-Jagged1 bone metastasis, late treatment with 15D11 and paclitaxel; conditions: in words
Experimental: To evaluate the combinatorial effect of 15D11 with conventional chemotherapy, we treated bone metastasis generated by SCP28-Jagged1 cells with 15D11 and paclitaxel, using the late treatment protocol (treatment initiated 1 week after IC injection) (FIG. 3A). […] Mice were treated with IgG (as negative control), 15D11, paclitaxel, or both, one week after IC injection of SCP28-Jagged1 to establish bone metastases.
For experimental bone metastasis, three models were used using intra-cardiac (IC), intra-iliac artery (IIA), and intra-tibia (i.t.) injection methods, as previously described (Andersen et al., 2003; Sethi et al., 2011; Wang et al., 2015). Bone metastasis burden was monitored by weekly BLI and X-ray imaging. At the experimental endpoint, mice were euthanized for bone histology analysis and half of the bone samples were used for μCT imaging and bone density quantification.
The initial treatment is either one day before tumor cell injection or one week after tumor cell injection as described in each experiment. For IgG or 15D11 antibody treatment, mice were i.p. injected at the dosing of 10 mg/kg, twice a week. […] For paclitaxel treatment, paclitaxol powder was first dissolved in 95% ethanol, sonicated and shaken overnight, before mixing 1:1 with cremophor (Sigma Catalog#:769193-1KG) to reach the final concentration of 20 mg/ml. […]

SCP28 = assay: CC3 immunofluorescent staining of GFP-positive tumor cells in mouse bone sections; conditions: after two rounds of treatment
Experimental: FIG. 7. Pro-survival effect of osteoblast Jagged1 on cancer cells can be blocked by 15D11. (A) 3-D tumorsphere culture of MCF7, SCP28, and SUM1315-M1B1 cells, alone or in co-cultured with osteoblast cells, were treated with indicated concentrations of cisplatin or docetaxel. Two days after the chemotherapy, the surviving tumor spheres were counted under the fluorescent microscope. n=3. *p<0.05 by Student's t-test. (B) Cell culture of SCP28 cells alone or in co-culture with MC3T3-E1 pre-osteoblast cells were treated with PBS control or cisplatin. Protein samples were collected at 6 hr, 24 hr, and 72 hr later. Cleaved PARP and cleaved caspase-3 were determined by immunoblotting. # marks full length PARP and * marks cleaved PARP. […] Hind limb bones were fixed and cryo-sectioned for IF staining against CC3 for apoptotic cells and GFP for tumor cells (E), and CC3 positive apoptotic cells among GFP-positive tumor cells were quantified in F. Size bar: 25 μm. n=5. **p<0.01 by Student's t-test. […] Tumor cells in the bone were quantified based on BLI imaging at Day 1 and Day 4. […]
Hindlimb bones were excised from mice at the end point of each experiment, immediately after the last BLI time point. […] For quantitative analysis of lesion area, a 10× objective was used to focus on the tumor region of interest and images were acquired using the AxioCamICc3 camera set to an exposure of around 100 ms. […]

CC(=O)O[C@H]1C(=O)[C@@]2(C)[C@H]([C@H](OC(=O)c3ccccc3)[C@]3(O)C[C@H](OC(=O)[C@H](O)[C@@H](NC(=O)c4ccccc4)c4ccccc4)C(C)=C1C3(C)C)[C@]1(OC(C)=O)CO[C@@H]1C[C@@H]2O [paclitaxel]
bone metastasis burden (SCP28 cells): only slightly reduced metastatic burden
tumor burden at the end point (SCP28-Jagged1 cells): only a mild reduction of tumor burden
CC3 positive tumor cells (SCP28): substantial numbers of tumor cells
